Data set [1] is described as follows: LogP HPLC.
Data set [2] deals with central benzodiazepine receptors. Briefly: In vitro binding, [3H]-Flumazenil, brain cortex membrane preparation. Particulars: for IC50: [3H]-Flumazenil (2 nM), 25° C., 45 min, read-out: CBR IC50; for CBR, % @ 10^−5M: [3H]-Flumazenil. The method, then: (§1) Non-specific binding was determined with Flumazenil (20 μM). In both cases, incubations were terminated by rapid filtration through Whatman GF/B glass fibre. Filters were immediately washed 3 times with 5 mL ice-cold 50 mM Tris/HCl at pH 7.4. Filters were counted in a β-scintillation counter (Packard) to measure the amount of bound radioactivity. The IC50 of the compounds for the peripheral benzodiazepine binding site and the central benzodiazepine receptor were calculated using Kell 6 software.

The target of data set [3] is T1, peripheral benzodiazepine binding site (Rattus norvegicus, UniProt P16257).
T1 construct: diluted kidney membrane preparation (200 μg); from tissue; host or cells: kidney membrane preparation
In words: In vitro binding, [3H]-PK11195, kidney membrane preparation. Particulars: [3H]-PK11195 (2 nM), 4° C., 1 h. The method, then: Non-specific binding was determined with PK11195 (10 μM).
as §1

Data set [4] in a line: Biodistribution of 18F-labelled tracers in rats. Format: in vivo. Particulars: SD rats; for Biodistribution: Bone / Biodistribution: Kidney / Biodistribution: Olfactory bulbs / Biodistribution: Adrenals: decay correction not stated. The method, boiled down: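 Sprague-Dawley rats received 18F tracer, and brain and peripheral tissues were analysed at 15 and 30 min and 1 and 4 h post-injection. For specificity, rats were pretreated 5 min beforehand with PK11195 or Ro 5-4864 (PBR) or flumazenil (CBR), each at 1 mg/kg.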

Data set [5] addresses T2, peripheral benzodiazepine receptors (Rattus norvegicus, UniProt P16257).
T2 construct: high uptake in the tissues which have known PBR sites; from tissue; host or cells: organs of living SD rats (brain and peripheral tissues), in vivo
In words: In vivo blocking / competition of tracer uptake by pre-treatment with PBR and CBR ligands. The note with it: rats. The method, then:
The criteria for significance were **p<0.01 (highly significant) and *p<0.05 (significant). No stars implies not statistical difference from normals or controls.
The biodistribution of PBR132* was undertaken in SD rats and analysis up to 4 h p.i. in the brain and peripheral tissues was performed. The specificity and selectivity of the tracer were assessed by pre-treatment with PBR and Central benzodiazepine receptor (CBR) specific ligands (1 mg/kg) 5 min prior to injection of PBR132*.
The biodistribution of PBR 147* was performed in SD rats and brain and peripheral tissues were analysised at 15, 30 min, 1, and 4 h p.i. The specificity and selectivity of the tracer was assessed by pre-treatment of the animals with the PBR ligands PK11195 and Ro 5-4864 and with Flumazenil for CBR at 1 mg/kg 5 min prior to injection of PBR 147*
The biodistribution of PBR102* and PBR111* were performed in SD rats and brain and peripheral tissues analysed at 15, 30 min, 1, and 4 h p.i. The specificity and selectivity of the tracers were assessed by pre-treatment with the PBR ligands PK11195 and Ro 5-4864 and with Flumazenil for CBR at 1 mg/kg 5 min prior to injection of the corresponding tracers.
The specificity and selectivity of the tracers were assessed by pre-treatment with the PBR ligands PK11195 and Ro 5-4864 and with Flumazenil for CBR at 1 mg/kg 5 min prior to injection of the corresponding tracers.

We go through eight molecules from patent publication US20100209345A1, “Fluorinated Ligands for Targeting Peripheral Benzodiazepine Receptors” (Australian Nuclear Science & Technology Organisation, priority 2006, published 2010).

Where two headings read alike, the source gives them in different places. Where only a bound is given, the exact number is not on record here.

As usually defined, the chromatographic logP is a lipophilicity value derived from retention on a column. A higher chromatographic logP goes with higher lipophilicity. In general, IC50 refers to the concentration needed to halve the response being measured. In turn, `CCN(CC)C(=O)Cc1c(-c2ccc(OCCCCF)cc2)nc2ccc(Cl)cn12` [PBR 120, 2-(2-(4-(4-fluorobutoxy)phenyl)-6-chloroimidazo[1,2-a]pyridin-3-yl)-N,N-diethylacetamide] came in with a chromatographic logP in data set [1] of 3.53 ± 0.11. Further, the half-maximal inhibitory concentration (IC50) in data set [2] was determined as 942 nM; in data set [3] (PBR IC50 (nM)), 35 nM.
Molecule `CCN(CC)C(=O)Cc1c(-c2ccc(OCCCF)cc2)nc2c(Cl)cc(Cl)cn12` [PBR 130, 2-(2-(4-(3-fluoropropoxy)phenyl)-6,8-dichloroimidazo[1,2-a]pyridin-3-yl)-N,N-diethylacetamide] registered a chromatographic logP in data set [1] of 3.43 ± 0.1. For the same molecule, in data set [2], the “CBR, % @ 10^−5M” value amounted to 50% @ 10^−5M and the IC50 is greater than 5000 nM. For the same molecule, the IC50 in data set [3] (PBR IC50 (nM)) was 20 nM.
The molecule `CCN(CC)C(=O)Cc1c(-c2ccc(C(C)(C)C)cc2)nc2ccc(F)nn12` [PBR 132, 2-(2-(4-tert-butylphenyl)-6-fluoroimidazo[1,2-b]pyridazin-3-yl)-N,N-diethylacetamide] registered a chromatographic logP in data set [1] of 3.6 ± 0.11. The IC50 in data set [2] amounted to 343 nM; in data set [3] (PBR IC50 (nM)) it was 38 nM.
In the same order, the values of `CCN(CC)C(=O)Cc1c(-c2ccc(OCCF)cc2)nc2c(Cl)cc(Cl)cn12` [PBR 136, 2-(2-(4-(2-fluoroethoxy)phenyl)-6,8-dichloroimidazo[1,2-a]pyridin-3-yl)-N,N-diethylacetamide] are 2.99 ± 0.09, 588 nM and 17.6 nM.
In data set [1], `CC(C)(C)c1ccc(-c2nc3ccc(F)nn3c2CNC(=O)c2ccccc2)cc1` [PBR 139, N-((2-(4-tert-butylphenyl)-6-fluoroimidazo[1,2-b]pyridazin-3-yl)methyl)benzamide] showed a chromatographic logP of 4.23 ± 0.13. The IC50 worked out at 2620 nM in data set [2] and 800 nM in data set [3] (read-out: PBR IC50).
As for `CN(C(=O)Cc1c(-c2ccc(OCCF)cc2)nc2c(Cl)cc(Cl)cn12)c1ccccc1` [PBR 143, 2-(2-(4-(2-fluoroethoxy)phenyl)-6,8-dichloroimidazo[1,2-a]pyridin-3-yl)-N-methyl-N-phenylacetamide], in data set [1], the chromatographic logP came out at 3.85 ± 0.12. In addition, the “CBR, % @ 10^−5M” value in data set [2] was 50% @ 10^−5M. This molecule also came in with an IC50 in data set [3] (PBR IC50 (nM)) of 6.4 nM.
In data set [1], `CN(C(=O)Cc1c(-c2ccc(OCCCF)cc2)nc2c(Cl)cc(Cl)cn12)c1ccccc1` [PBR 147, 2-(2-(4-(3-fluoropropoxy)phenyl)-6,8-dichloroimidazo[1,2-a]pyridin-3-yl)-N-methyl-N-phenylacetamide] had a chromatographic logP of 4.31 ± 0.13. In addition, in data set [4] (15 min), the “Biodistribution: Bone” value is 1 % ID/g, the “Biodistribution: Kidney” value was 5 % ID/g and the “Biodistribution: Olfactory bulbs” value turned out to be 0.66 % ID/g. Moreover, the “Heart uptake maintained throughout the experiment” value in data set [4] (15 min to 4 h) is listed as 7%. Moreover, the “Biodistribution: Adrenals” value in data set [4] (30 min) is 9 % ID/g. Also, in data set [4] (4 hours), the “Biodistribution: Adrenals” value was 11 % ID/g, the “Biodistribution: Bone” value turned out to be 2.9 % ID/g, the “Biodistribution: Kidney” value stood at 3.6 % ID/g and the “Biodistribution: Olfactory bulbs” value was 0.26 % ID/g. Further, in data set [4] (throughout 15 min to 4 h), the “Blood activity level / concentration in the blood over the 4 h study period” value is “significantly lower”. For the same molecule, in data set [2], the IC50 turned out to be 4090 nM. The same molecule came in with a half-inhibitory concentration (IC50) in data set [3] (PBR IC50 (nM)) of 7.4 nM. In addition, the “Tracer uptake after pre-treatment with PK 11195” value in data set [5] (PK 11195 1 mg/kg 5 min prior to tracer, PBR-expressing tissues (brain/peripheral organs, adrenals apart)) is reported as “decreased”. Besides, in data set [5] (PK 11195 1 mg/kg 5 min prior to tracer, adrenals), the “Tracer uptake in the adrenals after pre-treatment with PK 11195” value is on record as “increase”. In addition, the “Tracer uptake after pre-treatment with Ro 5-4864” value in data set [5] (Ro 5-4864 1 mg/kg 5 min prior to tracer, PBR-expressing tissues (brain/peripheral organs, adrenals apart)) is “decreased”. Also, in data set [5] (Ro 5-4864 1 mg/kg 5 min prior to tracer, adrenals), the “Tracer uptake in the adrenals after pre-treatment with Ro 5-4864” value is “increase”. Further, the “Tracer uptake after pre-treatment with flumazenil (central benzodiazepine ligand)” value in data set [5] (flumazenil 1 mg/kg 5 min prior to tracer, brain or peripheral organs) is listed as “no effect”.
In data set [1], `CN(C(=O)Cc1c(-c2ccc(OCCF)cc2)nc2ccc(Cl)cn12)c1ccccc1` [PBR 149, 2-(2-(4-(2-fluoroethoxy)phenyl)-6-chloroimidazo[1,2-a]pyridin-3-yl)-N-methyl-N-phenylacetamide] came in with a chromatographic logP of 3.57 ± 0.11. The IC50 in data set [2] turned out to be 357 nM; in data set [3] (PBR IC50 (nM)), 4.7 nM.
